Here are results for nine molecules from US9910050B2, “Mutant smoothened and methods of using the same” (Curis, Inc., priority 2009, dated 2018).

“Also recorded” adds a separate entry of the source.

For data set [1], the system named is SG274 allografts (Smo-D477G). Put plainly: Tumor growth of subcutaneous SG274 MB allografts. It counts as in vivo, mouse. Conditions: compound 5 100 mg kg−1 once daily, oral. The text has this: (§1) Drug treatment of animals with MB allografts. Tumor-hearing animals were generated via serial subcutaneous propagation of murine Ptch+/−; p53−/− MB tumor lines (Wetmore C. et al. (2001) Cancer Res. 61:513-516). Subcutaneous tumors 1500-2000 mm3 were excised from donor mice under aseptic conditions, minced in High Glucose DMEM by repeated slicing and chopping with two #10 scalpels and passed through a cell dissociation sieve (Sigma, CD1-1KT). The resulting single cell suspension was washed twice in High Glucose DMEM and filtered through a 70 μm nylon cell strainer (BD Falcon) before counting in a Vi-CELL cell viability analyzer (Beckman Coulter). Approximately 2.5-4×10^6 live cells in a 100 μl volume were injected subcutaneously into the right lateral thorax of 7 to 10-week-old female CD-1 nude mice (CRL). Tumor dimensions were measured with Ultra Cal1 IV calipers (Fred V. Fowler Company Inc., Newton, Mass.) and tumor volume was calculated using the formula v=0.5×a×b2, where a and b are the […] perpendicular tumor diameters, respectively. When tumors reached 125-350 mm^3 in volume, animals were separated into treatment groups with similarly sized tumors and drug administration was initiated. […]

The next data set deals with T1, SMO-D473H (Homo sapiens, UniProt Q99835, D473H).
T1 construct: expressed in transfected cells; host or cells: C3H10T½ cells (reporter assay)
As to the kind of experiment: Gli-luciferase reporter assay in C3H10T½ cells transfected with SMO-D473H. It counts as cell-based. The following applies: for activity against SMO-D473H, inhibition of Gli-luciferase activity: screen at 1 μM compound. Here is the method: For the PTCH1 inhibition experiments, cells were transfected with an additional 200 ng of DNA containing varying ratios of PTCH1 to eGFP expression constructs. For the NF-κB and SV40 reporter assays, Gli-BS was replaced with either pGL4.32 or pGL3-Promoter. Six hours later, cells were collected by trypsin treatment and each well was redistributed over four wells of a 12-well plate. The FBS content of the culture medium was reduced to 0.5% the following morning to induce formation of primary cilia, and small molecule Hh inhibitors were added at indicated concentrations. […] Values were divided by Renilla luciferase activities to normalize for transfection efficiency and are shown as the mean of three separate experiments±1 standard deviation.
A general note: In a reporter assay the amount or activity of a reporter protein is the signal.

Data set [2] has as its system Gli1 mRNA in SG274 tumors. As to the kind of experiment: Gli1 mRNA levels by qRT-PCR in SG274 tumors. Format: in vivo, mouse. Conditions: compound 5 100 mg kg−1 once daily, collected 6 hours after last treatment. On the technique in general: Real-time PCR tracks product formation cycle by cycle.
The target of another data set is T2, endogenous SMO (Mus musculus, UniProt P56726).
T2 construct: endogenous in cells
Put plainly: Inhibition of endogenous SMO following stimulation by Hh ligand. Format: cell-based. Conditions: data not shown.

Data set [3] in a line: Mouse pharmacokinetic study. It counts as in vivo. Conditions: for pharmacokinetic properties in mice: oral. Here is the method: Mouse pharmacokinetic studies. […] Briefly, 24 female CD-1 mice weighing 25 to 33 g at study initiation were given a single oral 100 mg kg−1 dose of either compound 4 or 5 as a suspension in 0.5% methylcellulose with 0.2% Tween-80 (MCT). Blood samples (n=3 mice per time point) were collected in tubes containing EDTA as an an anticoagulant by terminal cardiac puncture under isoflurane at the following time points: 5, 15 and 30 min; and 1, 3, 6, 9 and 24 h post-dose. Blood samples were centrifuged to collect plasma, which was stored at −80° C. until drug concentrations were quantified by LC/MS/MS.

In a further data set the target is T3, SMO-WT (Homo sapiens, UniProt Q99835).
T3 construct: expressed in transfected cells; host or cells: C3H10T½ cells (reporter assay)
Put plainly: Gli-luciferase reporter assay in C3H10T½ cells transfected with SMO-WT. It counts as cell-based.

Data set [4] deals with Smo localization to the primary cilium in S12 cells. As to the kind of experiment: Smo immunostaining, ciliary localization in S12 cells. The following applies: 16 h; for effect on Smo localization compared with GDC-0449: absence or presence of Shh, 1 μM; for ciliary accumulation of Smo in the absence of Hh stimulation: no Shh.
For data set [5], the system named is control and GDC-0449-resistant MB allografts. As to the kind of experiment: Tumor growth of control and GDC-0449-resistant MB allografts, PI3K inhibitor study. Format: in vivo, mouse. Conditions: GDC-0941 150 mg kg−1 once daily, oral, SG102, SG152, SG274.
Source text: as §1

Data set [6] relates to pAKT and pS6 (PI3K pathway). Put plainly: Immunoblot of activated AKT and S6 in MB allograft tumors. It counts as in vivo, mouse. Conditions: 6-hour treatment with GDC-0941. As to the method: Immunoblotting. Frozen tumor samples were lysed in M-PER Mammalian Protein Extraction Reagent (Pierce) containing protease and phosphatase inhibitors. Lysates were separated on 4-12% Bis-Tris gels and proteins were transferred onto PVDF membranes with an iBlot (Invitrogen). Blots were blocked and incubated overnight at 4° C. with 5% milk containing one of the following primary antibodies; anti-cyclin D1 (Cell Signaling, #2922), anti-phospho(Ser473)-AKT (Cell Signaling, #4060), anti-total AKT (Cell Signaling #9272), anti-Gli2 (Cho A. et al. (2008) Dev. Biol. 321:27-39), or anti-actin (Santa Cruz Biotechnology, sc-47778), followed by a 1 h incubation at RT with appropriate HRP-conjugated secondary antibodies. Antigen-antibody interactions were visualized with SuperSignal West Dura Extended Duration Substrate (Pierce).
For orientation: In western blotting, separated proteins are transferred to a membrane and probed.

The test system of data set [7] is Smo localization to the primary cilium. The following applies: literature reports; cited from earlier work.
The subject of a further data set is human hepatocytes. As to the kind of experiment: Metabolism by human hepatocytes. It counts as in vitro ADME. The following applies: unpublished observation.
Where [8] appears, read: 5 μM for cyclopamine, 1 μM for the others.

T1 sequence (Q99835 28-787 D473H): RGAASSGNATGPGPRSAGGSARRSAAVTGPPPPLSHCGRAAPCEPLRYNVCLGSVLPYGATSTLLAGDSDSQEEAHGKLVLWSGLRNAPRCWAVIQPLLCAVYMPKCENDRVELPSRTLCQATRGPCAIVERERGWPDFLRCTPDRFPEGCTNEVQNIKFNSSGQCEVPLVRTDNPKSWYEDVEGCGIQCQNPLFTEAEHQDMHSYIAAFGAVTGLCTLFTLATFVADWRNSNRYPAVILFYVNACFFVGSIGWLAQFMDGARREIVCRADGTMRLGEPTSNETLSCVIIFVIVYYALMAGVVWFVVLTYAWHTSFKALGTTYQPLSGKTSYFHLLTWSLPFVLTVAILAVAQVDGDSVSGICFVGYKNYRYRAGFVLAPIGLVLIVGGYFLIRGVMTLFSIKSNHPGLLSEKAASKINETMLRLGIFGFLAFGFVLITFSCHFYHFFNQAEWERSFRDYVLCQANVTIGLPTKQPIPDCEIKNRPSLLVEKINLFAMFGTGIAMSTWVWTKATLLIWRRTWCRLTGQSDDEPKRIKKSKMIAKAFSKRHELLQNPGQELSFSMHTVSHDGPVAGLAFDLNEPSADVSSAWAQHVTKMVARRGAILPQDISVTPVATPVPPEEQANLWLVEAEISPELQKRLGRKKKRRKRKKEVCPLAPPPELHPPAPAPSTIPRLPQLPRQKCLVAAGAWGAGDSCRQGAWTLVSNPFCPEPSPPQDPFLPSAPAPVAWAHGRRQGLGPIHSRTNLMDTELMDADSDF
T3 sequence (Q99835 28-787): as the sequence (Q99835 28-787 D473H) above, with H446D counted along it
T2 sequence (P56726 33-793): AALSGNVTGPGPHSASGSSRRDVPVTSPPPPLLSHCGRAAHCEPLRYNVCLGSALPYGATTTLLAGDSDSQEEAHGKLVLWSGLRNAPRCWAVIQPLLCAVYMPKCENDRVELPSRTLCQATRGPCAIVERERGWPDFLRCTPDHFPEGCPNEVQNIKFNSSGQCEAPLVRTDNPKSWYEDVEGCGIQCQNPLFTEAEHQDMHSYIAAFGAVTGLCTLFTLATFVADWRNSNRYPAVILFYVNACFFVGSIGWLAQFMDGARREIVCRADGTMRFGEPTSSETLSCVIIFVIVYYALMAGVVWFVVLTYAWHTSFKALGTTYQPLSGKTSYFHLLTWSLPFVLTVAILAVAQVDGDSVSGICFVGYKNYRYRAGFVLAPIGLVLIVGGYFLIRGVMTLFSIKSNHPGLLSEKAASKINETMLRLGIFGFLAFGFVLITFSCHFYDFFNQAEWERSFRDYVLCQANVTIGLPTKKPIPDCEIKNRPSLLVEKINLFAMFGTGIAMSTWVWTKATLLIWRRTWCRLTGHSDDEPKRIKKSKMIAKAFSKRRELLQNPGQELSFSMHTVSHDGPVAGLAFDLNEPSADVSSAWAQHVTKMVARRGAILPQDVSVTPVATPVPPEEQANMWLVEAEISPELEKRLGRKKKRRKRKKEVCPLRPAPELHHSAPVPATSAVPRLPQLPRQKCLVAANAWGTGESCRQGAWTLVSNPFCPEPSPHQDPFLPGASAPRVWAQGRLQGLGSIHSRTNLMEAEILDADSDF

As usually defined, the IC50 is the concentration that inhibits the measured activity by half. As to `C[C@@H]1CN(c2ccc(C(=O)Nc3ccc(Cl)c(NC(=O)c4cccc(Cl)c4)c3)cn2)C[C@H](C)N1` [Compound 5], in data set [1], the “tumor growth of SG274 allografts” value is “not only stopped growing but even started to shrink”. In addition, the IC50 on SMO-D473H (SMO-D473H transfected C3H10T½ cells, read-out: IC50, inhibition of Gli-luciferase reporter activity) is 700 nM; at SMO-WT (SMO-WT transfected C3H10T½ cells, read-out: IC50, inhibition of GLI-luciferase reporter activity), 300 nM. Also, the “inhibition of SMO-D473H, Gli-luciferase reporter dose response” value on SMO-D473H (dose response) is “can inhibit the drug-resistant mutant”. Besides, the “activity against SMO-D473H, inhibition of Gli-luciferase activity” value (shortened to “activity against SMO-D473H, inhibition”) on SMO-D473H is given as “improved potencies”. In addition, the “Gli1 mRNA levels in SG274 tumors” value in [2] is “downregulation in Gli1 mRNA levels”. The “less compound sufficient to inhibit endogenous SMO than in SMO overexpression assay” value at endogenous SMO is given as “approximately 10 fold”. For the same molecule, the half-life in data set [3] (female, CD-1, mouse, mice, single oral 100 mg kg−1 dose, plasma, read-out: terminal half-life (t1/2) (converted)) is about 22 h. For the same molecule, in data set [3], the “pharmacokinetic properties in mice” value is given as “good pharmacokinetic properties in mice”. Further, at SMO-WT (SMO-WT overexpression in C3H10T½ cells), the “activity against wild type SMO, Gli-luciferase reporter” value is listed as “less potent against SMO-WT than GDC-0449”. The “effect on Smo localization compared with GDC-0449” value in [4] is reported as “very similar effects on Smo localization”.
In the case of `O=C(Nc1ccc(Cl)c(NC(=O)c2cccc(Cl)c2)c1)c1ccc(N2CCC(O)CC2)nc1` [Compound 4], on SMO-D473H, the “activity against SMO-D473H, inhibition” value is “improved potencies”. In [3], the “pharmacokinetic properties in mice” value is given as “cleared much more rapidly from the blood stream than compound 5”.
For the molecule KAAD-cyclopamine, the “ciliary accumulation of Smo in the absence of Hh stimulation” value (from here on “ciliary accumulation of Smo”) in data set [4] (setting [8]) was “partially induced ciliary translation”.
Consider `CS(=O)(=O)c1ccc(C(=O)Nc2ccc(Cl)c(NC(=O)c3ccccc3)c2)c(Cl)c1` [Compound 3], for which the “activity against SMO-D473H, inhibition” value at SMO-D473H is on record as “measurable activity”.
For `CS(=O)(=O)N1CCN(Cc2cc3nc(-c4cccc5[nH]ncc45)nc(N4CCOCC4)c3s2)CC1` [GDC-0941], the “tumor growth of control and resistant MB allograft models” value in data set [5] was “greatly reduced tumor growth”. Also, the “pAKT and pS6 levels in tumors” value in [6] is “decreased pAKT and pS6 levels”.
As for `Cc1nn(-c2ccccc2)c(C)c1/C=N/N1CCN(Cc2ccccc2)CC1` [SANT-1], the “Shh and agonist-induced translocation of Smo to the cilium” value in [7] is “prevented Shh and agonist-induced translocation of Smo”. Also, the “activity against SMO-D473H, inhibition” value at SMO-D473H is reported as “partially resistant; also recorded: neither cyclopamine nor SANT-1 can fully inhibit Smo-D473H”. The “Hh-induced Smo translocation to the primary cilium” value in data set [4] (200 ng/ml octyl-Shh, 5 μM for cyclopamine, 1 μM for the others) is given as “prevented Hh-induced Smo translocation”. The “ciliary accumulation of Smo” value in data set [4] (setting [8]) is on record as “did not promote ciliary enrichment”.
`CCOc1cc(C(=O)Nc2ccc(Cl)c(-c3nc4ccccc4[nH]3)c2)cc(OCC)c1OCC` [HhAntag]: the “activity against SMO-D473H, inhibition” value at SMO-D473H is reported as “essentially equipment against all SMO alleles”. Also, in the data set with human hepatocytes, the “metabolism by human hepatocytes” value is “rapidly metabolized by human hepatocytes”. For the same molecule, the “effect on Smo localization compared with GDC-0449” value in [4] is “very similar effects on Smo localization”.
For `CNC1CCC(N(Cc2cccc(-c3ccncc3)c2)C(=O)c2sc3ccccc3c2Cl)CC1` (stereo not drawn) [SAG], in data set [4] (setting [8]), the “ciliary accumulation of Smo” value is listed as “robust translocation of Smo to the primary odium”.
For the molecule `CC1=C2C[C@H]3[C@@H](CC=C4C[C@@H](O)CC[C@@]43C)[C@@H]2CC[C@]12O[C@@H]1C[C@H](C)CN[C@H]1[C@H]2C` [cyclopamine], the “activity against SMO-D473H, inhibition” value at SMO-D473H is “partially resistant; also recorded: neither cyclopamine nor SANT-1 can fully inhibit Smo-D473H”. Further, the “ciliary accumulation of Smo” value in data set [4] (setting [8]) is given as “robust translocation of Smo to the primary odium”.
